Data as given in article PMC4311625, “Structural determinants for binding to angiotensin converting enzyme 2 (ACE2) and angiotensin receptors 1 and 2” (Frontiers in Pharmacology, 2015).
Read-outs that look alike come from different tables or passages of the source. Ends that are not written are not given here. Peptide text beside a SMILES is read from it.

Key:
[1] = molecular target: T1, ACE2 (Homo sapiens, UniProt Q9BYF1); assay: LC–MS ACE2 proteolytic cleavage assay; assay type: in vitro ADME; conditions: LC–MS; for Cleavage (%) by ACE2, 1 μM: peptide 1 μM incubated with ACE2 at 37 °C, typically 4-5 h; for Cleavage (%) by ACE2, 10 μM: peptide 10 μM incubated with ACE2 at 37 °C, typically 4-5 h (5 h)
T1 sequence (Q9BYF1 18-805, species assumed): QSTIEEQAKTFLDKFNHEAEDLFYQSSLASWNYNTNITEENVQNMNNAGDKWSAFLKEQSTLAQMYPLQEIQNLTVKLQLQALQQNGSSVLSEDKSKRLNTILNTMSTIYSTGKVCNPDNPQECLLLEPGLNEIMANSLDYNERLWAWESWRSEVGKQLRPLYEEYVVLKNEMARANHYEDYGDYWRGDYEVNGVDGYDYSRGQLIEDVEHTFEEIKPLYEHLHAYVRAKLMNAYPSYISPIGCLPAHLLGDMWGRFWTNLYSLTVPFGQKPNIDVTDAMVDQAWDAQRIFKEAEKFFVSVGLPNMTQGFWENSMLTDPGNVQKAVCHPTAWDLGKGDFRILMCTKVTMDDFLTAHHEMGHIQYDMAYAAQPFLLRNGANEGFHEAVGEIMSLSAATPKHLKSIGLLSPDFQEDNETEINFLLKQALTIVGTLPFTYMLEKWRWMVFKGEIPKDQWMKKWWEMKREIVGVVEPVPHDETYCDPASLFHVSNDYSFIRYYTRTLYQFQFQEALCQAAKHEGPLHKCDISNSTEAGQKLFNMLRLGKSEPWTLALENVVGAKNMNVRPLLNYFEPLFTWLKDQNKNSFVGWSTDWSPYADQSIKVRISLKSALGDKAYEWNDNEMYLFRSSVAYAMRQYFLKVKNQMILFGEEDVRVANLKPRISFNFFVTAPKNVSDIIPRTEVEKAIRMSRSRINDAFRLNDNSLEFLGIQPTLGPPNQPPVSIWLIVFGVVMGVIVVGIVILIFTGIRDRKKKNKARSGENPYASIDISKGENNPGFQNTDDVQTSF
Method: The first hour of the incubation was performed in the Fluorostar Optima plate reader in order to confirm previously observed level of inhibition, then for the remaining time the samples were transferred to small microfuge tubes and incubated in a water bath. The extent of ACE2 cleavage was assessed by LC–MS on an Agilent capillary HP1100, MSD VL3000 Ion-Trap system.

[2] = molecular target: T1, ACE2; assay: ACE2 quenched fluorescence substrate (QFS) inhibition assay; assay type: biochemical; conditions: for inhibition at 0.1 µM: peptide 0.1 μM, read-out: Inhibition (%) of ACE2, AngII chimeras, 0.1 μM; for inhibition at 1 µM: peptide 1 μM, read-out: Inhibition (%) of ACE2, AngII chimeras, 1 μM
Method: Angiotensin converting enzyme 2 QFS assays were performed for 1 h in 50 uM QFS, 1 M NaCl, 100 mM Tris-Cl, pH 6.5 at 37∘C on a BMG LabTechnologies (Offenburg, Germany), FLUOStar Optima in a 96 well-plate. Subsequent data analysis determined the inhibition of native AngII, its analogs and C-terminal peptides compared to the ACE2 QFS substrate [MCA-APK(DNP)-OH, [Vickers et al., 2002]]. […] Three controls were included in each ACE2 QFS assay; AngII (100 and 10 μM), IHPF (100 μM) and a known ACE2 inhibitor (1 nM; Millennium Pharmaceuticals, Cambridge, MA, USA). QFS assay results were accepted when ACE2 inhibition by AngII (10 μM) was 80 ± 5%, IHPF was 65 ± –5% and the ([Qian et al., 1999]) ‘Millennium Inhibitor’ was 70 ± –5%. Acceptable coefficients of variation (CV; standard deviation/mean × 100) for sample triplicates were <7%.
A library of 40 tetrapeptides based on the four C-terminal residues of Ang II (Ile-His-Pro-Phe/IHPF) was generated and screened for ACE2 binding at 100 μM in order to identify key residues of the C-terminus of Ang II involved in binding to the ACE2 active site. […] Several substitutions (Val, Tyr, Ala, Gly, Phe, Trp, Pro, His, Ile, and Leu) were made in order to further probe the highly hydrophobic and cyclic specificity of the C-terminus of Ang II. A β-napthalene amino acid (Nth) derivative was used as a highly hydrophobic non-natural cyclic residue substitute, and Arg and Lys were substituted for histidine at the second position from the N-terminus of the tetrapeptide to determine if positive charge or other structural or positional requirements were important.

[3] = QFS assay, pH 6.5, 37 °C, 1 h, value ± spread
[4] = peptide 10 μM, QFS assay, pH 6.5, 37 °C, 1 h, value ± spread, read-out: Inhibition (%) of ACE2, AngII chimeras, 10 μM
[5] = peptide 100 μM, 50 uM QFS, 1 M NaCl, 100 mM Tris-Cl pH 6.5, 37 °C, 1 h, triplicate, read-out: Inhibition (%) of ACE2, single and multiple residue substitution analogs (Table 2)
[6] = read-out: ACE2 inhibition of terminally modified IHPF analogs, 10 μM (Table 3, in brackets), peptide 10 μM, 50 uM QFS, 1 M NaCl, 100 mM Tris-Cl pH 6.5, 37 °C, 1 h
[7] = read-out: ACE2 inhibition of terminally modified IHPF analogs, 100 μM (Table 3), peptide 100 μM, 50 uM QFS, 1 M NaCl, 100 mM Tris-Cl pH 6.5, 37 °C, 1 h
[8] = pH 6.5, read-out: ACE2 inhibition of terminally modified IHPF analogs, 100 μM (Table 3)
[9] = peptide 100 μM, 50 uM QFS MCA-APK(DNP)-OH, 1 M NaCl, 100 mM Tris-Cl pH 6.5, 37 °C, 1 h, fluorescence, triplicate, read-out: ACE2 inhibition of single substitution analogs of the C-terminal of AngII (Table 1)
[10] = 1 h, pH 6.5, read-out: Inhibition (%) of ACE2, single and multiple residue substitution analogs (Table 2)

| Compound | inhibition at 10 µM [2, 6] [%] | inhibition at 100 µM [2, 7] [%] | further results |
| --- | --- | --- | --- |
| CC[C@H](C)[C@H](NC(=O)[C@H](Cc1ccc(O)cc1)NC(=O)[C@@H](NC(=O)[C@H](CCCNC(=N)N)NC(=O)[C@@H](N)CC(=O)O)C(C)C)C(=O)N[C@@H](Cc1cnc[nH]1)C(=O)N1CCC[C@H]1C(=O)N[C@@H](Cc1ccccc1)C(=O)O [Angiotensin II, reference compound] | – | – | Cleavage (%) by ACE2, 1 μM [1]: 93%; Cleavage (%) by ACE2, 10 μM ([1]; listed as D1R2V3Y4I5H6P7F8): 40 ± 2%; Cleavage (%) by ACE2, 10 μM ([1]; listed as native Ang II): 40%; inhibition at 0.1 µM [2, 3]: -5%; inhibition at 1 µM [2, 3]: 21 ± 6.8%; inhibition at 10 µM [2, 4]: 77 ± 2.9%; inhibition at 100 µM [2, 5]: 97%; inhibition at 100 µM ([2]; peptide 100 μM, QFS assay, pH 6.5, 37 °C, 1 h, value ± spread, read-out: Inhibition (%) of ACE2, AngII chimeras, 100 μM): 99 ± 0.3%; inhibition at 10 µM ([2]; read-out: ACE2 inhibition by control, acceptance window of QFS assay): 80 ± 5% |
| CC[C@H](C)[C@H](NC(C)=O)C(=O)N[C@@H](Cc1c[nH]cn1)C(=O)N1CCC[C@H]1C(=O)N[C@@H](Cc1ccccc1)C(=O)O [N-acetylated IHPF] (Ac-IHPF-OH) | 41 | 87 | – |
| CC[C@H](C)[C@H](NC(C)=O)C(=O)N[C@@H](Cc1ccc(O)cc1)C(=O)N1CCC[C@H]1C(=O)N[C@@H](Cc1ccccc1)C(=O)O [N-acetylated IYPF] (Ac-IYPF-OH) | 62 | 93 | – |
| CC(=O)N1CCC[C@H]1C(=O)N[C@@H](Cc1c[nH]cn1)C(=O)N1CCC[C@H]1C(=O)N[C@@H](Cc1ccccc1)C(=O)O [N-acetylated PHPF] (Ac-PHPF-OH) | – | 57 | – |
| CC(=O)N1CCC[C@H]1C(=O)N[C@@H](Cc1c[nH]cn1)C(=O)N[C@H](C(=O)N[C@@H](Cc1ccccc1)C(=O)O)C(C)C [N-acetylated PHVF] (Ac-PHVF-OH) | – | 8 | – |
| CC(=O)N1CCC[C@H]1C(=O)N[C@@H](Cc1ccc(O)cc1)C(=O)N1CCC[C@H]1C(=O)N[C@@H](Cc1ccccc1)C(=O)O [N-acetylated PYPF] (Ac-PYPF-OH) | 44 | 87 | – |
| CC(=O)N1CCC[C@H]1C(=O)N[C@@H](Cc1ccc(O)cc1)C(=O)N[C@H](C(=O)N[C@@H](Cc1ccccc1)C(=O)O)C(C)C [N-acetylated PYVF] (Ac-PYVF-OH) | 18 | 78 | – |
| CC(=O)N[C@H](C(=O)N[C@@H](Cc1c[nH]cn1)C(=O)N[C@H](C(=O)N[C@@H](Cc1ccccc1)C(=O)O)C(C)C)C(C)C [N-acetylated VHVF] (Ac-VHVF-OH) | 31 | 76 | – |
| CC(=O)N[C@H](C(=O)N[C@@H](Cc1ccc(O)cc1)C(=O)N1CCC[C@H]1C(=O)N[C@@H](Cc1ccccc1)C(=O)O)C(C)C [N-acetylated VYPF] (Ac-VYPF-OH) | 79 | 98 | – |
| CC(=O)N1CCC[C@H]1C(=O)N[C@@H](Cc1ccc(O)cc1)C(=O)N1CCC[C@H]1C(=O)N[C@@H](Cc1ccccc1)C(N)=O [N-acetylated/C-amidated PYPF] (Ac-PYPF-NH2) | – | – | inhibition at 100 µM [2, 8]: 28% |
| CC(=O)N[C@H](C(=O)N[C@@H](Cc1ccc(O)cc1)C(=O)N1CCC[C@H]1C(=O)N[C@@H](Cc1ccccc1)C(N)=O)C(C)C [N-acetylated/C-amidated VYPF] (Ac-VYPF-NH2) | – | – | inhibition at 100 µM [2, 8]: 30% |
| O=C(O)[C@H](Cc1ccccc1)NC(=O)[C@@H]1CCCN1C(=O)[C@H](Cc1ccc(O)cc1)NC(=O)[C@@H]1CCCN1 [PYPF] (H-PYPF-OH) | – | – | inhibition at 100 µM [2, 10]: 93%; inhibition at 10 µM ([2]; pH 6.5, read-out: ACE2 inhibition of terminally modified IHPF analogs, 10 μM (Table 3, in brackets)): 50%; inhibition at 100 µM [2, 8]: 93% |
| CC(C)[C@H](N)C(=O)N[C@@H](Cc1c[nH]cn1)C(=O)N1CCC[C@H]1C(=O)N[C@@H](Cc1ccccc1)C(=O)O [VHPF] (H-VHPF-OH) | – | – | inhibition at 100 µM [2, 9]: 78%; inhibition at 100 µM [2, 5]: 78% |
| CC(C)[C@H](N)C(=O)N[C@@H](Cc1ccc(O)cc1)C(=O)N1CCC[C@H]1C(=O)N[C@@H](Cc1ccccc1)C(=O)O [VYPF] (H-VYPF-OH) | – | – | inhibition at 100 µM [2, 10]: 90% |
| CC(C)[C@H](N)C(=O)N[C@@H](Cc1ccc(O)cc1)C(=O)N[C@H](C(=O)N[C@@H](Cc1ccccc1)C(=O)O)C(C)C [VYVF] (H-VYVF-OH) | – | – | inhibition at 100 µM [2, 5]: 78% |
| N[C@@H](Cc1c[nH]c2ccccc12)C(=O)N[C@@H](Cc1c[nH]cn1)C(=O)N1CCC[C@H]1C(=O)N[C@@H](Cc1ccccc1)C(=O)O [WHPF] (H-WHPF-OH) | – | – | inhibition at 100 µM [2, 9]: 0% |
| N[C@@H](Cc1ccc(O)cc1)C(=O)N[C@@H](Cc1c[nH]cn1)C(=O)N1CCC[C@H]1C(=O)N[C@@H](Cc1ccccc1)C(=O)O [YHPF] (H-YHPF-OH) | – | – | inhibition at 100 µM [2, 9]: 34% |
| DRVYIYPF | – | – | Cleavage (%) by ACE2, 1 μM [1]: 85%; Cleavage (%) by ACE2, 10 μM [1]: 18 ± 1.2%; inhibition at 0.1 µM [2, 3]: 17%; inhibition at 1 µM [2, 3]: 78 ± 2%; inhibition at 10 µM [2, 4]: 96% |

Further lines, with some results ahead:

| inhibition at 10 µM [2, 6] [%] | inhibition at 100 µM [2, 7] [%] | Compound | further results |
| --- | --- | --- | --- |
| – | 26 | CC[C@H](C)[C@H](NC(C)=O)C(=O)N[C@@H](Cc1c[nH]cn1)C(=O)N1CCC[C@H]1C(=O)N[C@@H](Cc1ccccc1)C(N)=O [N-acetylated/C-amidated IHPF] (Ac-IHPF-NH2) | – |
| – | 18 | CC[C@H](C)[C@H](NC(C)=O)C(=O)N[C@@H](Cc1ccc(O)cc1)C(=O)N1CCC[C@H]1C(=O)N[C@@H](Cc1ccccc1)C(N)=O [N-acetylated/C-amidated IYPF] (Ac-IYPF-NH2) | – |
| – | 8 | CC(=O)N1CCC[C@H]1C(=O)N[C@@H](Cc1c[nH]cn1)C(=O)N1CCC[C@H]1C(=O)N[C@@H](Cc1ccccc1)C(N)=O [N-acetylated/C-amidated PHPF] (Ac-PHPF-NH2) | – |
| – | 12 | CC(=O)N1CCC[C@H]1C(=O)N[C@@H](Cc1c[nH]cn1)C(=O)N[C@H](C(=O)N[C@@H](Cc1ccccc1)C(N)=O)C(C)C [N-acetylated/C-amidated PHVF] (Ac-PHVF-NH2) | – |
| – | 25 | CC(=O)N1CCC[C@H]1C(=O)N[C@@H](Cc1ccc(O)cc1)C(=O)N[C@H](C(=O)N[C@@H](Cc1ccccc1)C(N)=O)C(C)C [N-acetylated/C-amidated PYVF] (Ac-PYVF-NH2) | – |
| 4 | 21 | CC(=O)N[C@H](C(=O)N[C@@H](Cc1c[nH]cn1)C(=O)N[C@H](C(=O)N[C@@H](Cc1ccccc1)C(N)=O)C(C)C)C(C)C [N-acetylated/C-amidated VHVF] (Ac-VHVF-NH2) | – |
| 20 | 81 | O=C(O)[C@H](Cc1ccccc1)NC(=O)[C@@H]1CCCN1C(=O)[C@H](Cc1c[nH]cn1)NC(=O)[C@@H]1CCCN1 [PHPF] (H-PHPF-OH) | inhibition at 100 µM [2, 9]: 78% |
| 49 | 93 | CC(C)[C@H](NC(=O)[C@H](Cc1c[nH]cn1)NC(=O)[C@@H]1CCCN1)C(=O)N[C@@H](Cc1ccccc1)C(=O)O [PHVF] (H-PHVF-OH) | inhibition at 100 µM [2, 5]: 93% |
| 51 | 94 | CC(C)[C@H](NC(=O)[C@H](Cc1ccc(O)cc1)NC(=O)[C@@H]1CCCN1)C(=O)N[C@@H](Cc1ccccc1)C(=O)O [PYVF] (H-PYVF-OH) | inhibition at 100 µM [2, 5]: 94% |
| 37 | 85 | CC(C)[C@H](N)C(=O)N[C@@H](Cc1c[nH]cn1)C(=O)N[C@H](C(=O)N[C@@H](Cc1ccccc1)C(=O)O)C(C)C [VHVF] (H-VHVF-OH) | inhibition at 100 µM [2, 5]: 85% |
